{
  "source": "patent US20250262139A1",
  "about": "“POLYPEPTIDES AND METHODS FOR IMPROVING SKIN CONDITIONS” (INTERK PEPTIDE THERAPEUTICS LIMITED, priority 2020, published 2025)",
  "key": {"dermal fibroblasts": {"system": "dermal fibroblasts", "experiment": "TBARS lipid peroxidation assay, UV-irradiated dermal fibroblasts", "format": "cell-based", "settings": "IK-3 at the highest concentration (5 μM); 1,25D", "description": "The ability of the polypeptide RSKAKNPLYRRRRRRRRR to alter UV-induced oxidative damage of cell-derived lipids was examined using the TBARS thiobarbituric acid-reactive substances (TBARS) lipid peroxidation assay.\nAfter irradiation or sham-irradiation of dermal fibroblasts, supernatants (900 μL) were collected. In brief, 90 μL of butylated hydroxytoluene (2% w/w in ethanol) was added and samples kept frozen (−20° C.) until the TBARS assay. Petri dishes were washed twice with 1 mL of HBSS, cells scraped in 600 μL of water and 60 μL of 0.5% aqueous Triton X100 added to this solution, for protein determination carried out by the Lowry method (Lowry O H et al, J. Biol. Chem., 1951, 193:265-275). TBARS were fluorometrically assayed as described (Morlière P et al, Biochim. Biophys. Acta, 1991, 1084:261-268). Briefly, thawing samples were heated in the presence of thiobarbituric acid in acidic conditions, and TBARS extracted with 1-butanol and fluorometrically quantified (λexc=515 nm and Aem=550 nm). Tetraethoxypropane, which quantitatively yields the malondialdehyde-thiobarbituric acid adduct in the assay conditions, was used for calibration. TBARS values, expressed in malondialdehyde (MDA) equivalents, were normalized to the cell protein for each Petri dish. Each TBARS determination was performed in triplicate (e.g., with three Petri dishes per data point)."}, "CREB-S133": {"system": "CREB-S133", "experiment": "CREB phosphorylation by western blot in keratinocytes after solar simulated UV", "format": "cell-based", "settings": "0.1 μM, 1 μM and 5 μM added immediately following ssUV irradiation", "description": "The influence of the polypeptide IK34720 (SEQ ID NO: 3) on CREB phosphorylation was assessed using the following protocol.\nKeratinocytes were harvested and cultured as previously described (Gupta et al., J Invest Dermatol, 2007, 127 (3): 707-215). Keratinocytes, (passages 1-5) from 3 independent donors were used in the experiments illustrated in FIG. 3.\nPositive control treatment (denoted “D” in FIG. 3) was prepared by solubilizing Calcitriol (1,25-dihydroxyvitamin D3 (1,25 (OH)2D3)-Cayman Chemical, MI, USA) in 100% spectroscopic ethanol (Merck, Darmstadt, Germany) and the final concentration was determined by spectroscopy (NanoDrop 2000, Thermo Fisher Scientific, MA, USA). The polypeptide IK34720 (SEQ ID NO: 3) was solubilised in phosphate buffered saline (PBS) to a concentration of 1 mM at pH 7.2. A vehicle (denoted as “V” in FIG. 3) constituting 0.1% (v/v) spectroscopic ethanol and 0.1% (v/v) PBS was prepared for use as a negative control.\nCultured cells were irradiated by solar simulated UV-irradiation (ssUV) using an Oriel 1000W xenon-arc lamp (Stratford, CT, USA). Irradiation was administered at an energy level of 400 mJ/cm^2 for UVB and 3600 mJ/cm^2 for UVA (total 4000 mJ/cm^2), measured by an OL754 radiometer (Optronics Laboratories Inc., Orlando, FL). This dosage equates to approximately 4 min irradiation of the sun at 12 noon in October in Sydney, Australia. […]"}, "Skh: hr1 hairless mice": {"system": "Skh: hr1 hairless mice", "experiment": "8-OHdG (8oxodG) immunohistochemistry in UV-irradiated mouse skin", "format": "in vivo", "settings": "topical immediately after 3 MED UVR; IK34720 20, 100 or 200 μg, Calcitriol 11.4 pmol/cm2; biopsy 3 h post-UVR; vs vehicle", "description": "8-hydroxy-2′-deoxyguanosine or 8-oxo-7,8-dihydro-2′-deoxyguanosine (8-OHdG/8-oxodG) is one of the predominant forms of free radical-induced in oxidative lesions with the concentrations of 8-OHdG within a cell being a measurement of oxidative stress. The role of the polypeptide IK34720 (SEQ ID NO: 3) in UV-induced oxidative stress was assessed using the following protocol.\nFemale Skh: hr1 hairless mice were exposed to solar simulated UV-irradiation (UVR) by exposure to one fluorescent UVB tube (Philips TL40W 12R/S, Eindhoven, The Netherlands) in combination with 6 UVA tubes (Hitachi 40W F40T 10/BL, Tokyo, Japan). The UVA and UVB irradiation was filtered through a 0.125 mm cellulose acetate sheet (Grafix Plastics, Cleveland, OH) as previously described (Dixon K M et al., Biochem Mol Biol, 2007, 103 (3-5): 451-6). […]\nBiopsies were taken from UV-irradiated dorsal skin 3 h post-UVR and fixed in Histochoice fixative (Amresco, Solon OH) for 6 h. […] Sections were subjected to routine hematoxylin and eosin staining for visualization of sunburn cells at 40× magnification, and the number of sunburn cells per linear millimetre of skin section recorded.\nLevels of 8-oxo-2′-deoxyguanosine (8oxodG) indicative of oxidative stress were detected by immunohistochemistry and image analysis (Dixon K M et al., Cancer Prev Res 2011, 4 (9): 1485-94) as set out below. […]"}},
  "note": "Where no end group is shown, it is not given here.",
  "data": [
    {"sequence": "RSKAKNPLYRRRRRRRRR (not fully specified (some residues)) [IK34720]", "values": [
      {"measurement": "significant difference in TRS (TBA reactive substances) between Sham and UV irradiation", "setting": "dermal fibroblasts", "result": "not seen"},
      {"measurement": "UV-induced phosphorylation of serine at position 133 of CREB", "setting": "CREB-S133", "result": "inhibits UV-induced phosphorylation"},
      {"measurement": "8-OHdG formation in the skin", "setting": "Skh: hr1 hairless mice", "result": "inhibits 8-OHdG formation"}
    ]}
  ]
}
